Measurements taken from patent EP2147919A1, “Heterocyclic substituted amides, method for their manufacture and their use as herbicides” (Bayer CropScience Aktiengesellschaft, priority 2008, dated 2010).
Values belong to the molecule of their own block, whether it stands above or below them.

Assays:
Log P = type: physicochemical
MATIN [1] = assay: Herbicidal action pre-emergence (greenhouse pot test, visual rating); type: in vivo, Matricaria inodora; conditions: Vorauflauf, 1280 g/ha, visual rating after 3 weeks vs untreated controls
Description: (§1) Samen von mono- bzw. dikotylen Unkraut- bzw. Kulturpflanzen werden in Holzfasertöpfen in sandiger Lehmerde ausgelegt und mit Erde abgedeckt. Die in Form von benetzbaren Pulvern (WP) oder als Emulsionskonzentrate (EC) formulierten erfindungsgemäßen Verbindungen werden dann als wäßrige Suspension bzw. Emulsion mit einer Wasseraufwandmenge von umgerechnet 600 bis 800 l/ha unter Zusatz von 0,2% Netzmittel auf die Oberfläche der Abdeckerde appliziert.
(§2) Nach der Behandlung werden die Töpfe im Gewächshaus aufgestellt und unter guten Wachstumsbedingungen für die Testpflanzen gehalten. Die visuelle Bonitur der Schäden an den Versuchspflanzen erfolgt nach einer Versuchszeit von 3 Wochen im Vergleich zu unbehandelten Kontrollen (herbizide Wirkung in Prozent (%): 100% Wirkung = Pflanzen sind abgestorben, 0 % Wirkung = wie Kontrollpflanzen).

VIOTR [2] = assay: Herbicidal action post-emergence (greenhouse pot test, visual rating); type: in vivo, Viola tricolor; conditions: Nachauflauf, 1280 g/ha, visual rating after ca. 3 weeks vs untreated controls
Description: (§3) Samen von mono- bzw. dikotylen Unkraut- bzw. Kulturpflanzen werden in Holzfasertöpfen in sandigem Lehmboden ausgelegt, mit Erde abgedeckt und im Gewächshaus unter guten Wachstumsbedingungen angezogen. 2 bis 3 Wochen nach der Aussaat werden die Versuchspflanzen im Einblattstadium behandelt. Die in Form von benetzbaren Pulvern (WP) oder als Emulsionskonzentrate (EC) formulierten erfindungsgemäßen Verbindungen werden dann als wäßrige Suspension bzw. Emulsion mit einer Wasseraufwandmenge von umgerechnet 600 bis 800 l/ha unter Zusatz von 0,2% Netzmittel auf die grünen Pflanzenteile gesprüht. Nach ca. 3 Wochen Standzeit der Versuchspflanzen im Gewächshaus unter optimalen Wachstumsbedingungen wird die Wirkung der Präparate visuell im Vergleich zu unbehandelten Kontrollen bonitiert (herbizide Wirkung in Prozent (%): 100% Wirkung = Pflanzen sind abgestorben, 0 % Wirkung = wie Kontrollpflanzen).

MATIN [3] = assay: as above; type: in vivo, Matricaria inodora; conditions: Nachauflauf, 1280 g/ha, visual rating after ca. 3 weeks vs untreated controls
Description: as §3

ABUTH [4] = assay: as above; type: in vivo, Abutilon theophrasti; conditions: Nachauflauf, 1280 g/ha, visual rating after ca. 3 weeks vs untreated controls
Description: as §3

SETVI = assay: Herbicidal action pre-emergence (greenhouse pot test, visual rating); type: in vivo, Setaria viridis; conditions: Vorauflauf, 1280 g/ha, visual rating after 3 weeks vs untreated controls
Description: as §1, §2

STEME [5] = assay: as above; type: in vivo, Stellaria media; conditions: Vorauflauf, 1280 g/ha, visual rating after 3 weeks vs untreated controls
Description: as §1, §2

STEME [6] = assay: Herbicidal action post-emergence (greenhouse pot test, visual rating); type: in vivo, Stellaria media; conditions: Nachauflauf, 1280 g/ha, visual rating after ca. 3 weeks vs untreated controls
Description: as §3

VERPE [7] = assay: Herbicidal action pre-emergence (greenhouse pot test, visual rating); type: in vivo, Veronica persica; conditions: Vorauflauf, 1280 g/ha, visual rating after 3 weeks vs untreated controls
Description: as §1, §2

PHBPU = assay: Herbicidal action post-emergence (greenhouse pot test, visual rating); type: in vivo, Pharbitis purpurea; conditions: Nachauflauf, 1280 g/ha, visual rating after ca. 3 weeks vs untreated controls
Description: as §3

AMARE [8] = assay: Herbicidal action pre-emergence (greenhouse pot test, visual rating); type: in vivo, Amaranthus retroflexus; conditions: Vorauflauf, 1280 g/ha, visual rating after 3 weeks vs untreated controls
Description: as §1, §2

AMARE [9] = assay: Herbicidal action post-emergence (greenhouse pot test, visual rating); type: in vivo, Amaranthus retroflexus; conditions: Nachauflauf, 1280 g/ha, visual rating after ca. 3 weeks vs untreated controls
Description: as §3

VERPE [10] = assay: as above; type: in vivo, Veronica persica; conditions: Nachauflauf, 1280 g/ha, visual rating after ca. 3 weeks vs untreated controls
Description: as §3

Schadpflanzen = assay: Herbicidal action pre-emergence, summary over the weed spectrum; type: in vivo; conditions: Vorauflaufverfahren, Aufwandmenge von 1.28 kg und weniger Aktivsubstanz pro Hektar
Description: as §1, §2

LOLMU = assay: Herbicidal action pre-emergence (greenhouse pot test, visual rating); type: in vivo, Lolium multiflorum; conditions: Vorauflauf, 1280 g/ha, visual rating after 3 weeks vs untreated controls
Description: as §1, §2

ALOMY = assay: as above; type: in vivo, Alopecurus myosuroides; conditions: Vorauflauf, 1280 g/ha, visual rating after 3 weeks vs untreated controls
Description: as §1, §2

ABUTH [11] = assay: as above; type: in vivo, Abutilon theophrasti; conditions: Vorauflauf, 1280 g/ha, visual rating after 3 weeks vs untreated controls
Description: as §1, §2

ECHCG = assay: as above; type: in vivo, Echinochloa crus-galli; conditions: Vorauflauf, 1280 g/ha, visual rating after 3 weeks vs untreated controls
Description: as §1, §2

VIOTR [12] = assay: as above; type: in vivo, Viola tricolor; conditions: Vorauflauf, 1280 g/ha, visual rating after 3 weeks vs untreated controls
Description: as §1, §2

POLCO = assay: as above; type: in vivo, Polygonum convolvolus; conditions: Vorauflauf, 1280 g/ha, visual rating after 3 weeks vs untreated controls
Description: as §1, §2

logP (Log P): 2.37
SMILES: Cc1cc(OC(C)C)c(C(=O)NC(c2cnc(Cl)c(Cl)c2)c2ccon2)c(Cl)n1 (stereo not shown) [Beispiel 222]

logP (Log P): 4.51
SMILES: COc1c(C(=S)NC(c2ccc(Cl)cc2)c2ccon2)csc1Br (stereo not shown) [Beispiel 313, 5-Brom-N-[(4-chlorphenyl)(isoxazol-3-yl)methyl]-4-methoxythiophen-3-carbothioamid]

SMILES: COc1ccc(C(NC(=O)c2c(C)nn(C)c2Cl)c2ccon2)c(F)c1 (stereo not shown) [Beispiel 261]
herbizide Wirkung MATIN (MATIN [1]): 100% | herbizide Wirkung VIOTR (VIOTR [2]): 100% | herbizide Wirkung MATIN (MATIN [3]): 100% | herbizide Wirkung ABUTH (ABUTH [4]): 80% | herbizide Wirkung SETVI (SETVI): 90% | herbizide Wirkung STEME (STEME [5]): 100% | herbizide Wirkung STEME (STEME [6]): 100% | herbizide Wirkung VERPE (VERPE [7]): 100% | herbizide Wirkung PHBPU (PHBPU): 80% | herbizide Wirkung AMARE (AMARE [8]): 100% | herbizide Wirkung AMARE (AMARE [9]): 90% | herbizide Wirkung VERPE (VERPE [10]): 100%

logP (Log P): 2.28
SMILES: COc1ccc(C(NC(=O)c2cnc(C)c(Br)c2C)c2ccon2)c(F)c1 (stereo not shown) [Beispiel 132]

logP (Log P): 2.63
SMILES: O=C(NC(c1ccc(Cl)cc1)c1ccon1)c1ncn(Cc2ccccc2)c1[N+](=O)[O-] (stereo not shown) [Beispiel 289]

logP (Log P): 2.16
SMILES: COc1cccc(C(NC(=O)c2c(OC(C)C)cc(C)nc2Br)c2ccon2)c1 (stereo not shown) [Beispiel 158]

logP (Log P): 2.45
SMILES: CCCOc1cc(C)nc(Cl)c1C(=O)NC(c1cnc(Cl)c(Cl)c1)c1ccon1 (stereo not shown) [Beispiel 221]

logP (Log P): 1.76
SMILES: COc1ccc(C(NC(=S)c2cnn(C)c2Cl)c2ccon2)c(F)c1 (stereo not shown) [Beispiel 312, 5-Chlor-N-[(2-fluor-4-methoxyphenyl)(isoxazol-3-yl)methyl]-1-methyl-1 H-pyrazol-4-carbothioamid]

logP (Log P): 1.07
SMILES: COc1ccncc1C(=O)NC(c1ccc(F)c(F)c1)c1ccon1 (stereo not shown) [Beispiel 190]

SMILES: COc1ccc(C(NC(=O)c2c(OC(C)C)cc(C)nc2Br)c2ccon2)c(F)c1 (stereo not shown) [Beispiel 3, 2-Brom-N-[(2-fluor-4-methoxyphenyl)(isoxazol-3-yl)methyl]-4-isopropoxy-6-methylnicotinamid]
herbizide Wirkung gegen Schadpflanzen (Schadpflanzen): sehr gute herbizide Wirkung

logP (Log P): 2.6
SMILES: CCCOc1cc(C)nc(Br)c1C(=O)NC(c1cnc(Cl)c(Cl)c1)c1ccon1 (stereo not shown) [Beispiel 223]

SMILES: Cc1cc(C(=O)NC(c2ccc(Cl)cc2)c2ccon2)cs1 (stereo not shown) [Beispiel 295]
herbizide Wirkung VIOTR (VIOTR [2]): 90% | herbizide Wirkung MATIN (MATIN [3]): 80% | herbizide Wirkung ABUTH (ABUTH [4]): 80% | herbizide Wirkung STEME (STEME [6]): 100%

logP (Log P): 1.18
SMILES: COc1ccncc1C(=O)NC(c1ccc(Cl)cc1)c1ccon1 (stereo not shown) [Beispiel 188]

logP (Log P): 3.64
SMILES: COc1c(C(=O)NC(c2ccc(Cl)cc2)c2ccon2)csc1Br (stereo not shown) [Beispiel 290]

SMILES: Cc1cc(OC(C)C)c(C(=O)NC(c2ccc(Cl)cc2)c2ccon2)c(Cl)n1 (racemic) [Beispiel 152, 2-Chlor-N-[(4-chlorphenyl)(isoxazol-3-yl)methyl]-4-isopropoxy-6-methylnicotinamid]
herbizide Wirkung MATIN (MATIN [1]): 100% | herbizide Wirkung LOLMU (LOLMU): 90% | herbizide Wirkung ALOMY (ALOMY): 80% | herbizide Wirkung ABUTH (ABUTH [11]): 100% | herbizide Wirkung ECHCG (ECHCG): 90% | herbizide Wirkung SETVI (SETVI): 100% | herbizide Wirkung STEME (STEME [5]): 90% | herbizide Wirkung VIOTR (VIOTR [12]): 100% | herbizide Wirkung VERPE (VERPE [7]): 100% | herbizide Wirkung gegen Schadpflanzen (Schadpflanzen): sehr gute herbizide Wirkung | herbizide Wirkung AMARE (AMARE [8]): 100% | herbizide Wirkung POLCO (POLCO): 100%
